Reference: PMC5951580, “The effect of acylation with fatty acids and other modifications on HLA class II:peptide binding and T cell stimulation for three model peptides” (PLoS ONE, 2018)

Experiments:
[1] = test system: PBMCs from healthy donors; test: Two-week re-stimulation T cell assay with IFN-γ, IL-5 and IL-10 fluorospot; assay type: cell-based, human; conditions: for Frequency of responding donors (all cytokines) / Frequency of responding donors compared to the non-acylated peptide (in words) / Magnitude of the response (SFC, all cytokines) compared to the non-acylated peptide (in words): peptide 50 μg/ml, IFN-γ/IL-5/IL-10 fluorospot, n = 22; for Frequency of responding donors (all cytokines): 14 days stimulation with IL-2, re-stimulation 20h, one positive hit for one cytokine equals a positive donor; for Frequency of responding donors compared to the non-acylated peptide (in words) / Magnitude of the response (SFC, all cytokines) compared to the non-acylated peptide (in words): re-stimulation
[2] = human, in vivo; cited from earlier work
HLA-DR alleles = test system: HLA-DR alleles; set-up: species or system human; conditions: 15 HLA-DR alleles analyzed, IC50 of 1000 nM as binding threshold
HLA-DQA1*01:02/B1*06:02 = HLA-DQA1*01:02/B1*06:02 (Homo sapiens, UniProt P01909+P01920, A157G/A45G/C70R/E118A/E183D/E77G/F83G/G63E/H151Q/H199R/H252R/H253Q/I129T/I235V/I88M/INS77G/K197Q/L117V/L119F/L178F/L71W/L74F/L85Q/L91A/L98M/N214S/P87R/Q116E/Q76K/R102G/R240Q/R75S/R78G/S102Y/S185I/S41F/S97I/T121G/T122I/T172A/T86R/V229M/V68A/V73E/Y34C/Y41F/Y58L); assay type: binding; conditions: threshold IC50 1000 nM
HLA-DQA1*01:02/B1*06:02, sequence (P01920 33-261 with the stated changes limits assumed, other chains not shown): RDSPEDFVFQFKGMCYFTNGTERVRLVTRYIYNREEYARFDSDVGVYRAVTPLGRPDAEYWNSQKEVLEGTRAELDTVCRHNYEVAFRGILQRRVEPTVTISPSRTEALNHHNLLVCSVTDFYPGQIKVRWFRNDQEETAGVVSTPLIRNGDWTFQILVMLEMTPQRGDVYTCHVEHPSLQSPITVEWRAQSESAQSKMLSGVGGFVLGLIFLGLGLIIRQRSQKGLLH

[3] = cited from earlier work

Substance: QLLDRGATALVLQVLNVPRLMTQD [Peptide 14, Vatreptacog alfa (285–309) peptide fragment, 25-aa, non-acylated]
- Frequency of responding donors (all cytokines) [1]: 45%

Substance: Peptide 10: Exendin-4 acylated with C18 via Oeg-Oeg-LγGlu at 20 (WT R to K)
- Frequency of responding donors compared to the non-acylated peptide (in words) ([1]; 14 days stimulation): further decreases
- Magnitude of the response (SFC, all cytokines) compared to the non-acylated peptide (in words) ([1]; 14 days stimulation): decreased magnitudes

Substance: Peptide 13: Exendin-4 acylated with 2 x C18 via Oeg-Oeg-LγGlu at 12 (K) + 27 (K)
- Frequency of responding donors compared to the non-acylated peptide (in words) ([1]; 14 days stimulation): decreased
- Magnitude of the response (SFC, all cytokines) compared to the non-acylated peptide (in words) ([1]; 14 days stimulation): decreased

Substance: Peptide 12: Exendin-4 acylated with C18 via Oeg-Oeg-LγGlu at C-terminus
- Frequency of responding donors (all cytokines) [1]: 10%

Substance: Peptide 7: Exendin-4 (1–39), 39-aa peptide used for the treatment of diabetes mellitus type 2, non-acylated
- Frequency of responding donors (all cytokines) [1]: 40%
- Patients treated with the compound that show an immunogenic response [2]: 40–60%

Substance: PKYVKQNTLKLAT [Peptide 1]
- HLA-DR alleles that bound the peptide with an affinity of 1000 nM or better (number/number analyzed) (HLA-DR alleles): 12/15
- HLA-DR alleles that bound the peptide with an affinity of 1000 nM or better (HLA-DR alleles; radiolabeled peptide competition, two-day incubation, three or more independent experiments): 80%
- HLA-DQA1*01:02/B1*06:02 binding capacity (binder / non-binder) (HLA-DQA1*01:02/B1*06:02): non-binder
- Cytokine response (IFN-γ, IL-5, IL-10 secreting cells) in words ([1]; peptide 5 μg/ml, 14 days stimulation, re-stimulation 20 hours, fluorospot, seven donors): significant numbers of IFN-γ, IL-5 and IL-10 producing cells
- Donors with an immunogenic response [3]: approximately 30%

Substance: Peptide 11: Exendin-4 acylated with C18 via Oeg-Oeg-LγGlu at 27 (K)
- Frequency of responding donors (all cytokines) [1]: None
